Measurements: PMC10624635, “Design of allosteric sites into rotary motor V1-ATPase by restoring lost function of pseudo-active sites” (Nature Chemistry, 2023)

Target: T1, wild-type V1-ATPase (Enterococcus hirae, UniProt Q08636+Q08637)
T1 construct: gene ntpA
Conditions: MgCl2; pH 6.5, 25 °C; ATP-regenerating system

SMILES: Nc1ncnc2c1ncn2[C@@H]1O[C@H](COP(=O)(O)OP(=O)(O)OP(=O)(O)O)[C@@H](O)[C@H]1O [ATP]
- coupled ATPase assay (NADH, pyruvate kinase / lactate dehydrogenase): We also measured ATPase activity of the wild-type and designed V1
